Target: T1, glucokinase (GK), residues 12-465 of the human enzyme (Homo sapiens, UniProt P35557)
T1 construct: I.D. No. 1 corresponds to residues 12-465 of glucokinase; made in house; host or cells: E. coli DH10b-Tlr
T1 sequence (P35557 with tags, fused parts or gaps isoform P35557-2): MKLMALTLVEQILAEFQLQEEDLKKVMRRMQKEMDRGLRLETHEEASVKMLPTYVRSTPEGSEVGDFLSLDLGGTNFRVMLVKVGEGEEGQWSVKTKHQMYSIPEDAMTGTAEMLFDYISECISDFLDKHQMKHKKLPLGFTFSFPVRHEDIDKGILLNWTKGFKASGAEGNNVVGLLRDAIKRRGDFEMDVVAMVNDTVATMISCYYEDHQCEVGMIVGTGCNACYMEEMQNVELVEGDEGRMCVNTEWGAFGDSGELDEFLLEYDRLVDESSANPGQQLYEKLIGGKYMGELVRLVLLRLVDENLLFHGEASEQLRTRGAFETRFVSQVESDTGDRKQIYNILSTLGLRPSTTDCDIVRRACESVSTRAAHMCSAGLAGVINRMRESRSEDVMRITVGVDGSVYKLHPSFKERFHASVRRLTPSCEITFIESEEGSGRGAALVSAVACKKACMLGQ
Assay: Enzymatic glucokinase activity assay (KinaseGlo luminescence, ATP consumption)
Assay type: biochemical
Settings: 5 μM ATP, 5 mM Glucose; for EC50: GK activation, Kact = concentration giving 50% of the maximal increase in GK activity, read-out: pKact; for Emax: calculated maximal gain in GK enzyme activity at a saturating concentration of the compound, read-out: % ACTmax
In short: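 C-terminally FLAG-tagged enzyme expressed in E. coli and purified. Reaction: 25 mM Hepes pH 7.2, 25 mM NaCl, 10 mM MgCl2, 0.01% Brij35, 1 mM DTT, 5 μM ATP, 5 mM glucose, 2% DMSO, 60 min at room temperature. Remaining ATP was read by luciferase luminescence; pKact and % ACTmax came from nonlinear fits of 11-point 2-fold dilutions.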

EC50	Emax	Compound
1.58 to 2.51 µM	97.1 to 107%	O=C(Nc1nccs1)[C@H](CC1CCCCC1)N1CCN(C(=S)NCCCN2CCOCC2)CC1=O [Example 118, (S)-3-cyclohexyl-2-(4-(3-morpholinopropylcarbamothioyl)-2-oxopiperazin-1-yl)-N-(thiazol-2-yl)propanamide]
0.794 to 1.26 µM	108 to 119%	Cc1ccc(S(=O)(=O)N2CCN([C@@H](CC3CCCCC3)C(=O)Nc3nccs3)C(=O)C2)cc1Cl [Example 94, (S)-2-(4-(3-chloro-4-methylphenylsulfonyl)-2-oxopiperazin-1-yl)-3-cyclohexyl-N-(thiazol-2-yl)propanamide]
0.794 to 1.26 µM	74.1 to 97%	O=C(Nc1nccs1)[C@H](CC1CCCCC1)N1CCN(S(=O)(=O)c2cc3ccccc3o2)CC1=O [Example 226, (S)-2-(4-(benzofuran-2-ylsulfonyl)-2-oxopiperazin-1-yl)-3-cyclohexyl-N-(thiazol-2-yl)propanamide]
1.58 to 2.51 µM	97.1 to 107%	Cc1nn(C)c(Cl)c1S(=O)(=O)N1CCN([C@@H](CC2CCCCC2)C(=O)Nc2nccs2)C(=O)C1 [Example 47, (S)-2-(4-(5-chloro-1,3-dimethyl-1H-pyrazol-4-ylsulfonyl)-2-oxopiperazin-1-yl)-3-cyclohexyl-N-(thiazol-2-yl)propanamide]
≥ 3.16 µM	≥ 119%	Cc1n[nH]c(C)c1S(=O)(=O)N1CCN([C@@H](CC2CCCCC2)C(=O)Nc2nccs2)C(=O)C1 [Example 111, (S)-3-cyclohexyl-2-(4-(3,5-dimethyl-1H-pyrazol-4-ylsulfonyl)-2-oxopiperazin-1-yl)-N-(thiazol-2-yl)propanamide]
0.794 to 1.26 µM	108 to 119%	Cc1nc(S(=O)(=O)N2CCN([C@@H](CC3CCCCC3)C(=O)Nc3nccs3)C(=O)C2)cn1C [Example 48, (S)-3-cyclohexyl-2-(4-(1,2-dimethyl-1H-imidazol-4-ylsulfonyl)-2-oxopiperazin-1-yl)-N-(thiazol-2-yl)propanamide]
≤ 0.631 µM	108 to 119%	Cc1ccc(S(=O)(=O)N2CCN([C@@H](CC3CCCCC3)C(=O)Nc3nccs3)C(=O)C2)c(F)c1 [Example 222, (S)-3-cyclohexyl-2-(4-(2-fluoro-4-methylphenylsulfonyl)-2-oxopiperazin-1-yl)-N-(thiazol-2-yl)propanamide]
0.794 to 1.26 µM	≤ 74%	O=C(Nc1nccs1)[C@H](CC1CCCCC1)N1CCN(S(=O)(=O)c2ccc3ccccc3c2)CC1=O [Example 39, (S)-3-cyclohexyl-2-(4-(naphthalen-2-ylsulfonyl)-2-oxopiperazin-1-yl)-N-(thiazol-2-yl)propanamide]
≤ 0.631 µM	108 to 119%	Cn1ccc(S(=O)(=O)N2CCN([C@@H](CC3CCCCC3)C(=O)Nc3nccs3)C(=O)C2)n1 [Example 112, (S)-3-cyclohexyl-2-(4-(1-methyl-1H-pyrazol-3-ylsulfonyl)-2-oxopiperazin-1-yl)-N-(thiazol-2-yl)propanamide]
0.794 to 1.26 µM	≥ 119%	O=C(Nc1nccs1)[C@H](CC1CCCCC1)N1CCN(S(=O)(=O)CCC(F)(F)F)CC1=O [Example 100, (S)-3-cyclohexyl-2-(2-oxo-4-(3,3,3-trifluoropropylsulfonyl)piperazin-1-yl)-N-(thiazol-2-yl)propanamide]
1.58 to 2.51 µM	74.1 to 97%	O=C(Nc1nccs1)[C@H](CC1CCCCC1)N1CCN(S(=O)(=O)c2ccc(OC(F)F)cc2)CC1=O [Example 70, (S)-3-cyclohexyl-2-(4-(4-(difluoromethoxy)phenylsulfonyl)-2-oxopiperazin-1-yl)-N-(thiazol-2-yl)propanamide]
1.58 to 2.51 µM	≤ 74%	O=C(Nc1nccs1)[C@H](CC1CCCCC1)N1CCN(C(=S)Nc2ccc(Oc3ccccc3)cc2)CC1=O [Example 127, (S)-3-cyclohexyl-2-(2-oxo-4-(4-phenoxyphenylcarbamothioyl)piperazin-1-yl)-N-(thiazol-2-yl)propanamide]
≤ 0.631 µM	≥ 119%	O=C(Nc1nccs1)[C@H](CC1CCCCC1)N1CCN(S(=O)(=O)c2cccc(Cl)c2F)CC1=O [Example 188, (S)-2-(4-(3-chloro-2-fluorophenylsulfonyl)-2-oxopiperazin-1-yl)-3-cyclohexyl-N-(thiazol-2-yl)propanamide]
≤ 0.631 µM	108 to 119%	O=C(Nc1nccs1)[C@H](CC1CCCCC1)N1CCN(S(=O)(=O)c2ccccc2C(F)(F)F)CC1=O [Example 71, (S)-3-cyclohexyl-2-(2-oxo-4-(2-(trifluoromethyl)phenylsulfonyl)piperazin-1-yl)-N-(thiazol-2-yl)propanamide]
0.794 to 1.26 µM	≤ 74%	O=C(Nc1nccs1)[C@H](CC1CCCCC1)N1CCN(S(=O)(=O)c2ccc(Br)c(Br)c2)CC1=O [Example 231, (S)-3-cyclohexyl-2-(4-(3,4-dibromophenylsulfonyl)-2-oxopiperazin-1-yl)-N-(thiazol-2-yl)propanamide]
≥ 3.16 µM	74.1 to 97%	O=C(Nc1nccs1)[C@H](CC1CCCCC1)N1CCN2[C@@H](CCS2(=O)=O)C1=O [Example 31, (S)-3-Cyclohexyl-N-thiazol-2-yl-2-((S)-1,1,4-trioxo-hexahydro-1λ*6*-thia-5,7a-diaza-inden-5-yl)-propionamide]
0.794 to 1.26 µM	108 to 119%	N#Cc1cccc(S(=O)(=O)N2CCN([C@@H](CC3CCCCC3)C(=O)Nc3nccs3)C(=O)C2)c1 [Example 62, (S)-2-(4-(3-cyanophenylsulfonyl)-2-oxopiperazin-1-yl)-3-cyclohexyl-N-(thiazol-2-yl)propanamide]
≥ 3.16 µM	≥ 119%	COc1ccc(CCNC(=O)N2CCN([C@@H](CC3CCCCC3)C(=O)Nc3nccs3)C(=O)C2)cc1OC [Example 143, (S)-4-(3-cyclohexyl-1-oxo-1-(thiazol-2-ylamino)propan-2-yl)-N-(3,4-dimethoxyphenethyl)-3-oxopiperazine-1-carboxamide]
0.794 to 1.26 µM	≥ 119%	CC(C)C[C@@H](C(=O)Nc1ncc(F)s1)N1CCN(S(=O)(=O)C2CC2)CC1=O [Example 11, (S)-2-(4-(cyclopropylsulfonyl)-2-oxopiperazin-1-yl)-N-(5-fluorothiazol-2-yl)-4-methylpentanamide]
0.794 to 1.26 µM	108 to 119%	O=C(c1ccncc1)c1cccc(S(=O)(=O)N2CCN([C@@H](CC3CCCCC3)C(=O)Nc3nccs3)C(=O)C2)c1 [Example 179, (S)-3-cyclohexyl-2-(4-(3-isonicotinoylphenylsulfonyl)-2-oxopiperazin-1-yl)-N-(thiazol-2-yl)propanamide]
≥ 3.16 µM	74.1 to 97%	O=C(Nc1nccs1)[C@H](CC1CCCCC1)N1CCN(C(=O)Nc2cccc3ccccc23)CC1=O [Example 77, (S)-4-(3-cyclohexyl-1-oxo-1-(thiazol-2-ylamino)propan-2-yl)-N-(naphthalen-1-yl)-3-oxopiperazine-1-carboxamide]
0.794 to 1.26 µM	74.1 to 97%	O=C(Nc1nccs1)[C@H](CC1CCCCC1)N1CCN(S(=O)(=O)c2cc(F)c(Cl)cc2F)CC1=O [Example 190, (S)-2-(4-(4-chloro-2,5-difluorophenylsulfonyl)-2-oxopiperazin-1-yl)-3-cyclohexyl-N-(thiazol-2-yl)propanamide]
≥ 3.16 µM	74.1 to 97%	COC(=O)c1ccc(S(=O)(=O)N2CCN([C@@H](CC3CCCCC3)C(=O)Nc3nccs3)C(=O)C2)o1 [Example 158, (S)-methyl 5-(4-(3-cyclohexyl-1-oxo-1-(thiazol-2-ylamino)propan-2-yl)-3-oxopiperazin-1-ylsulfonyl)furan-2-carboxylate]
≥ 3.16 µM	97.1 to 107%	CC(=O)Nc1ccc(S(=O)(=O)N2CCN([C@@H](CC3CCCCC3)C(=O)Nc3nccs3)C(=O)C2)cc1 [Example 45, (S)-2-(4-(4-acetamidophenylsulfonyl)-2-oxopiperazin-1-yl)-3-cyclohexyl-N-(thiazol-2-yl)propanamide]
1.58 to 2.51 µM	108 to 119%	O=C(Nc1nccs1)[C@H](CC1CCCCC1)N1CCN(S(=O)(=O)Cc2cccc(Cl)c2)CC1=O [Example 63, (S)-2-(4-(3-chlorobenzylsulfonyl)-2-oxopiperazin-1-yl)-3-cyclohexyl-N-(thiazol-2-yl)propanamide]
≤ 0.631 µM	108 to 119%	Cc1ccc(S(=O)(=O)N2CCN([C@@H](CC3CCCCC3)C(=O)Nc3nccs3)C(=O)C2)cc1F [Example 189, (S)-3-cyclohexyl-2-(4-(3-fluoro-4-methylphenylsulfonyl)-2-oxopiperazin-1-yl)-N-(thiazol-2-yl)propanamide]
1.58 to 2.51 µM	≥ 119%	CC(C)S(=O)(=O)N1CCN([C@@H](CC2CCCCC2)C(=O)Nc2nccs2)C(=O)C1 [Example 59, (S)-3-cyclohexyl-2-(4-(isopropylsulfonyl)-2-oxopiperazin-1-yl)-N-(thiazol-2-yl)propanamide]
